# Data published in US20240335547A1, “MODIFIED CHOLIC ACID CONJUGATES” (priority 2022, published 2024).
# What was measured:
# [1] = Cytotoxicity in human primary cell cultures (Trypan Blue Staining); assay type: cell-based; details: human, CC50
# Protocol: (1) HFF (human foreskin fibroblast) cells (2×105) were seeded with 2 ml of DMEM medium supplemented with 10% FBS in each well of two 12-well tissue culture plates. (2) Cells were cultured for 3 days. CSA-44 was added to test for cell toxicity. Eleven concentrations were tested: 40 μg/ml, 30 μg/ml, […], 17.5 μg/ml, 15 μg/ml, 12.5 μg/ml, 10 μg/ml, 7.5 μg/ml, 5 μg/ml, 2.5 μg/ml, and 1 μg/ml. Samples with concentration of 0 μg/ml were used as the control. Each concentration was tested in duplicates with two wells. (3) Cells were cultured for 48 hours with CSA-44. Trypan Blue Staining was used to determine the numbers of living and dead cells on a hemocytometer. Percentages of living and dead cells in each sample were calculated.
# (1) HFF cells (2×105) were seeded with 2 ml of DMEM medium supplemented with 10% FBS in each well of two 12-well tissue culture plates. (2) Cells were cultured for 3 days. CMA Conjugate was added to test for cell toxicity. Eleven concentrations were tested. They were 100 μg/ml, 80 μg/ml, 60 μg/ml, 50 μg/ml, 40 μg/ml, 30 μg/ml, 25 μg/ml, 20 μg/ml, 15 μg/ml, 10 μg/ml, and 5 μg/ml. Samples with concentration of 0 μg/ml were used as the control. Each concentration was tested in duplicates with two wells. (3) Cells were cultured for 48 hours with CMA Conjugate. […] Percentages of living and dead cells in each sample were calculated.
# [2] = 7 days, pH 7
# From the text: Storage stability in buffer was monitored over time of at least 7 days to determine the effect of solution pH and degradation.
structure (smiles),measurement,setting,value
C[C@H](CCC(=O)NCCNC(=O)CCCC[C@@H]1SCC2NC(=O)NC21)C1CCC2C3C(C[C@H](OC(=O)CCN)[C@@]21C)[C@@]1(C)CC[C@@H](OC(=O)CCN)CC1C[C@H]3OC(=O)CCN (stereo partly drawn) [Compound 12],CC50 at 48 h,[1],~65 µg/mL
same,"stability, time",[2],up to 7 days
same,"stable with no degradation, time",[2],at least 7 days
